The source of these data is US5324648A, “Substituted isocoumarins as serine protease inhibitors and anti-inflammatory agents” (Georgia Tech Research Corporation, priority 1992, dated 1994).

The structures appear in SMILES notation. Counter-ions that a name gives are not always drawn.

One series concerns the target T1, bovine thrombin (Bos taurus, UniProt P00735).
T1 construct: bovine thrombin
Put plainly: Inactivation rate of bovine thrombin. Type of series: biochemical. Particulars: Table I; pH 7.5, 25° C; [I] 0.3 to 400 μM; read-out: kobs/[I]. The protocol:
(§1) Inactivation rates of serine proteases by substituted isocoumarins were measured by the incubation method. An aliquot of inhibitor (25 or 50 μl) in Me2 SO was added to a buffered enzyme solution (0.01-2.3 μM) to initiate the inactivation. Aliquots (50 μl) were withdrawn at various intervals and the residual enzymatic activity was measured. Me2 SO concentration in the reaction mixture was 8-12% (v/v). 0.1 Hepes, 0.01M CaCl2, pH 7.5 buffer was utilized for trypsin and coagulation enzymes. 0.1M Hepes, 0.5M NaCl, pH 7.5 was utilized for other serine proteases. The inhibitor concentrations are shown in all the tables. Peptide thioesters or peptide nitroanilides with appropriate sequence were used as substrates for various serine proteases. All peptide thioester hydrolysis rates were measured with assay mixtures containing 4,4'-dithiodipyridine (ε324 =19800M^-1 cm^-1; Grasetti & Murray, Arch. Biochem. Biophys. 119, pp 41-49 (1967)). Peptide 4-nitroanilide nitroanilide hydrolysis was measured at 410 nm (ε410 =8800M^-1 cm^-1; Erlanger et al., Arch. Biochem. Biophys. 95, pp 271-278 (1961)). First order inactivation rate constant (kobs) were obtained from plots of ln (vt /vo) vs time, and the correlation coefficients were greater than 0.98.
(§2) ^a Conditions were as 0.1M Hepes, 0.01M CaCl2, pH 7.5 and 8-12%
(§3) Me2 SO and 25° C. Rate constants were measured by incubation
(§4) method unless otherwise noted. An aliquot of inhibitor was added to an
(§5) enzyme solution and aliquots removed with time and assayed for remaining
(§6) enzymatic activity. Firstorder rate constants, kobs were obtained
(§7) from the plots of ln(vt /vo) versus time.
(§8) ^a Inhibition rates were measured in 0.1M Hepes, 0.01M CaCl2, pH
(§9) 7.5 buffer, 8% Me2 SO and at 25° C.

For series [1], the target named is T2, porcine pancreatic kallikrein (Sus scrofa, UniProt P00752).
T2 construct: from tissue; host or cells: porcine pancreas (from the name)
T2 sequence (P00752 8-246): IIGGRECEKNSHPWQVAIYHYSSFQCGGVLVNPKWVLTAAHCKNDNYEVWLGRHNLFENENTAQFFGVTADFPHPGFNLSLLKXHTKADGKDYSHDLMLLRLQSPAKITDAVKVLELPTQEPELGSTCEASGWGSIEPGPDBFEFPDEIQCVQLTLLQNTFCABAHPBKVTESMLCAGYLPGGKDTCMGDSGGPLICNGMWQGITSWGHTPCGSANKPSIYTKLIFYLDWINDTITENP
Put plainly: Inactivation rate of porcine pancreatic kallikrein. It is filed as biochemical. The settings on record: Table I; pH 7.5, 25° C; [I] 0.4 to 300 μM; read-out: kobs/[I].

Another series addresses T3, human plasma kallikrein (Homo sapiens, UniProt P03952).
T3 construct: human plasma kallikrein; from tissue; host or cells: human plasma (from the name)
Description: Inactivation rate of human plasma kallikrein. Type of series: biochemical. The settings on record: Table I; pH 7.5, 25° C; [I] 3 to 330 μM (footnote g); read-out: kobs/[I]. How it is done: as §1, §2, §3, §4, §5, §6, §7

Another series has as its target T4, human factor XIa (Homo sapiens, UniProt P03951).
T4 construct: human factor XIa
Description: Inactivation rate of human factor XIa. It is filed as biochemical. Particulars: Table I; pH 7.5, 25° C; [I] 3 to 330 μM; read-out: kobs/[I]. The protocol:
as §1, §2, §3, §4, §5, §6, §7, §8, §9

The target of another series is T5, human factor XIIa (Homo sapiens, UniProt P00748).
T5 construct: human factor XIIa
T5 sequence (P00748 373-615 limits assumed): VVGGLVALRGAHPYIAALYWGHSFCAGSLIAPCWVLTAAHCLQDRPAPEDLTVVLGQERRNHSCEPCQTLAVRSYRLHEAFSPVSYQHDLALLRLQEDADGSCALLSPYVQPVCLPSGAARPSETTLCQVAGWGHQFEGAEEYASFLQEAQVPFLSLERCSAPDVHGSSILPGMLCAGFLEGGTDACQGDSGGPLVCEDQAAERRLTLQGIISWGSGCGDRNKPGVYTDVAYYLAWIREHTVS
T5 sequence (P00748 20-372 partner limits assumed): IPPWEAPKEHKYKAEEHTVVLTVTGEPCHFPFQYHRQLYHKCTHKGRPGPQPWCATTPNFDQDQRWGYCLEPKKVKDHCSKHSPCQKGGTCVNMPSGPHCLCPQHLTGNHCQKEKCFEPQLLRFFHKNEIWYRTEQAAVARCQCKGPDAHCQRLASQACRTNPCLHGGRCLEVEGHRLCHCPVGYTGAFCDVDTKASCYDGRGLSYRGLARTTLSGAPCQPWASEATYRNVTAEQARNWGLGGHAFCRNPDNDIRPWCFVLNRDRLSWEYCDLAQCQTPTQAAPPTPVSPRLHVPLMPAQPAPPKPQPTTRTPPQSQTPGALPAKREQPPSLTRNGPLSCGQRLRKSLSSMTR
Description: Inactivation rate of human factor XIIa. Type of series: biochemical. Particulars: Table I; pH 7.5, 25° C; [I] 3 to 330 μM; read-out: kobs/[I]. The protocol: as §1, §2, §3, §4, §5, §6, §7, §8, §9

The next series deals with T6, bovine trypsin (Bos taurus, UniProt P00760).
T6 sequence (P00760 24-246): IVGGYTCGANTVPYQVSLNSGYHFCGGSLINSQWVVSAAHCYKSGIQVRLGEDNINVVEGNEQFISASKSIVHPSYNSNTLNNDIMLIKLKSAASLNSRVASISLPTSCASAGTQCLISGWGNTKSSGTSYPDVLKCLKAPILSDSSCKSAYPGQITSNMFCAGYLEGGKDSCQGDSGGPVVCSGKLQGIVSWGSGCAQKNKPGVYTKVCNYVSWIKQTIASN
Description: Inactivation rate of bovine trypsin. Type of series: biochemical. The settings on record: Table I; pH 7.5, 25° C; [I] 1 to 12 μM; read-out: kobs/[I]. The protocol: as §1, §2, §3, §4, §5, §6, §7, §8, §9

The target in series [2] is sheep lung lymph tryptase. Put plainly: Inactivation rate of sheep lung lymph tryptase. Type of series: biochemical. Particulars: Table III; pH 7.5, 25° C; [I] 10 to 460 μM. The protocol: Inactivation rates of serine proteases by substituted isocoumarins were measured by the incubation method. An aliquot of inhibitor (25 or 50 μl) in Me2 SO was added to a buffered enzyme solution (0.01-2.3 μM) to initiate the inactivation. Aliquots (50 μl) were withdrawn at various intervals and the residual enzymatic activity was measured. […] 0.1 Hepes, 0.01M CaCl2, pH 7.5 buffer was utilized for trypsin and coagulation enzymes. […] The inhibitor concentrations are shown in all the tables. Peptide thioesters or peptide nitroanilides with appropriate sequence were used as substrates for various serine proteases.
^a Inactivation rates were measured at 0.1M Hepes, 0.5M NaCl, pH 7.5
buffer, 8% Me2 SO and 25° C.

For series [3], the target named is T7, porcine pancreatic elastase (PPE) (Sus scrofa, UniProt P00772).
T7 construct: from tissue; host or cells: porcine pancreas (from the name)
T7 sequence (P00772 27-266): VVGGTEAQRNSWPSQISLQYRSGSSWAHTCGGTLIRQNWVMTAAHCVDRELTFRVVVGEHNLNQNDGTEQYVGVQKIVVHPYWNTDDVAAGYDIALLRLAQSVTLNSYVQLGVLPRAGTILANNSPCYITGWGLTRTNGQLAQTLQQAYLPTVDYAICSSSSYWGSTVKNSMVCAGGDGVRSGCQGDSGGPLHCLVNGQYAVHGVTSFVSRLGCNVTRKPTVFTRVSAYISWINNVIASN
Description: Inactivation of porcine pancreatic elastase (PPE). Type of series: biochemical. The settings on record: Table IV; pH 7.5, 25° C; [I] 0.01 to 0.51 mM; read-out: kobs/[I].

Series [4] concerns the target T8, human leukocyte elastase (HLE) (Homo sapiens, UniProt P08246).
T8 construct: from tissue; host or cells: human leukocytes (from the name)
T8 sequence (P08246 30-267): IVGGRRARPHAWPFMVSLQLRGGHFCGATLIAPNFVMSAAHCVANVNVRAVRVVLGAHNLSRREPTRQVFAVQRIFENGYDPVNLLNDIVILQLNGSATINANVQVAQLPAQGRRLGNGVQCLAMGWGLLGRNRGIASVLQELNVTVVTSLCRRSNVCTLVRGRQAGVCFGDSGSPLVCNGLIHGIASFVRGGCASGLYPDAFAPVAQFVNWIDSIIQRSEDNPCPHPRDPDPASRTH
Put plainly: Inactivation of human leukocyte elastase (HLE). It is filed as biochemical. The settings on record: Table IV; pH 7.5, 25° C; [I] 0.001 to 0.18 mM; read-out: kobs/[I].

A further series concerns the target chymotrypsin (Bos taurus, UniProt P00766). Description: Inactivation of chymotrypsin. Type of series: biochemical, bovine. The settings on record: Table IV; pH 7.5, 25° C; [I] 0.004 to 0.33 mM; read-out: kobs/[I].
The target of a further series is T9, cathepsin G (Homo sapiens, UniProt P08311).
T9 construct: from tissue; host or cells: human leukocytes
T9 sequence (P08311 21-255): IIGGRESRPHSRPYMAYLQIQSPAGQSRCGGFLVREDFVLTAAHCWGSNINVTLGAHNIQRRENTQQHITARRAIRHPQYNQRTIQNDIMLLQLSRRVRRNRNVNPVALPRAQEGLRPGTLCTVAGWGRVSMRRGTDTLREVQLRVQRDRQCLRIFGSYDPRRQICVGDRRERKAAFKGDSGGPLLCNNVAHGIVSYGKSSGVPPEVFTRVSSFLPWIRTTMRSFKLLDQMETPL
Description: Inactivation of cathepsin G. Particulars: Table IV; for kinact/KI: pH 7.5, 25° C, [I] 0.002 to 0.35 mM, read-out: kobs/[I]. Type of series: biochemical.

The next series addresses T10, human plasmin (Homo sapiens, UniProt P00747).
T10 construct: human plasmin; from tissue; host or cells: human plasma
Put plainly: Inactivation rate of human plasmin. The settings on record: Table VI; pH 7.5, 25° C; [I] 4 to 330 μM; read-out: kobs/[I]. It is filed as biochemical.

Series [5] is described as follows: Spontaneous hydrolysis in Hepes buffer. It is filed as physicochemical. The settings on record: hepes buffer; 0.1 Hepes, 0.5M NaCl, pH 7.5, 9% Me2SO, 25° C; read-out: t1/2 for spontaneous hydrolysis. How it is done: ^a Conditions were 0.1 Hepes, 0.5M NaCl, pH 7.5 and 9% Me2 SO at
25° C. Spontaneous hydrolysis rates were measured
spectrophotometrically by monitoring the decrease in absorbance due to th
isocoumarin ring system (wavelength 335-380 nm) using the firstorder rate

The target in the next series is complement protein D (Homo sapiens, UniProt P00746). Description: Inactivation rate of complement protein D. It is filed as biochemical. The settings on record: Table II; pH 7.5, 25° C; [I] 0.05 to 1.29 mM; read-out: kobs/[I]. The protocol: as §1
complement protein D, sequence (P00746 26-253): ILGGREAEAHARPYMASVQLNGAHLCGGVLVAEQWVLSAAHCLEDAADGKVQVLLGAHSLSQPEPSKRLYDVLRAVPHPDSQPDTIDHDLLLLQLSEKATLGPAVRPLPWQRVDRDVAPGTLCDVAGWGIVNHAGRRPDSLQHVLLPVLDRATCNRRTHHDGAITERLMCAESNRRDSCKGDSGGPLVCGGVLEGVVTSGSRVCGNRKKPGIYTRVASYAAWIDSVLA
^a Conditions were 0.1M Hepes, 0.5M NaCl, pH 7.5, 8-10% Me2 SO
and 25° C. Inactivation rates were measured by incubation method.
Enzyme concentrations were as follows: protein D, 1-9 μM; C2, 0.7-1
μM; B, 1.8 μM; Bb, 0.3-0.8 μM; Cl^- s, 0.07 μM; Cl^-

The next series addresses T11, bovine factor Xa (Bos taurus, UniProt P00743).
T11 construct: bovine factor Xa
Description: Inactivation rate of bovine factor Xa. It is filed as biochemical. Particulars: Table I; pH 7.5, 25° C; [I] 0.4 to 310 μM; read-out: kobs/[I].

T4 sequence (P03951 388-625 limits assumed): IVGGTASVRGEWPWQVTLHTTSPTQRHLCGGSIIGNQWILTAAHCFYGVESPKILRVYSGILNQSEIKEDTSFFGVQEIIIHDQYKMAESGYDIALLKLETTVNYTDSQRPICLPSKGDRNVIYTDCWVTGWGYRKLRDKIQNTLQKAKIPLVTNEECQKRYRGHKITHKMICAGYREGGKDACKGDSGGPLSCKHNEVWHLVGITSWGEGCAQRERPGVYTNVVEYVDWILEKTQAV
T4 sequence (P03951 19-387 partner limits assumed): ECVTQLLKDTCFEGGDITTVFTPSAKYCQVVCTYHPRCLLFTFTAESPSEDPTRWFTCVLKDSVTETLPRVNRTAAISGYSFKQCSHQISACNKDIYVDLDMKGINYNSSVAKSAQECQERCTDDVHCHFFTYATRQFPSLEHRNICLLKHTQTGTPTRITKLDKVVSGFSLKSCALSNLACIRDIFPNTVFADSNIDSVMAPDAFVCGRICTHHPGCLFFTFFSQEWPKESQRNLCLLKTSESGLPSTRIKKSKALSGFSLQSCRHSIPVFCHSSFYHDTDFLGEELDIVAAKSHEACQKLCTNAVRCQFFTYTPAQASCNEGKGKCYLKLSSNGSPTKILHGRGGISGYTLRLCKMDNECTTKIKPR
T3 sequence (P03952 391-638 limits assumed): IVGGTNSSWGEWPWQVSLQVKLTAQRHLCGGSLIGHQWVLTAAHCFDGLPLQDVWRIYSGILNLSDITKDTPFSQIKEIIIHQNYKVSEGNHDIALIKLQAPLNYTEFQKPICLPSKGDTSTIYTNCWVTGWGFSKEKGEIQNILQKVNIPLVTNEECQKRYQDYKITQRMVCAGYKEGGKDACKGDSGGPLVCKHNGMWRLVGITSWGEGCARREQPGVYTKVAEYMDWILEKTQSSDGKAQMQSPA
T3 sequence (P03952 20-390 partner limits assumed): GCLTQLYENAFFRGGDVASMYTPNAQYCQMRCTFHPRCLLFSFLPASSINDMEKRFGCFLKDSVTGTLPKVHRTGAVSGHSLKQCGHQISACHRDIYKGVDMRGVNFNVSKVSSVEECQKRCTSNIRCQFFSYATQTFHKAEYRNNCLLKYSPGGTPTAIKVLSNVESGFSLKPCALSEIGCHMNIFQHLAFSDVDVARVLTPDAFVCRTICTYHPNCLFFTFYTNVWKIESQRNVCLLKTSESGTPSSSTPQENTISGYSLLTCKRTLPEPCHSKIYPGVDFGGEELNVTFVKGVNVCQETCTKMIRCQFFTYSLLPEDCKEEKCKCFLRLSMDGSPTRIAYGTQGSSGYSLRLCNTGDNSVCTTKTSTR
T10 sequence (P00747 581-810 limits assumed): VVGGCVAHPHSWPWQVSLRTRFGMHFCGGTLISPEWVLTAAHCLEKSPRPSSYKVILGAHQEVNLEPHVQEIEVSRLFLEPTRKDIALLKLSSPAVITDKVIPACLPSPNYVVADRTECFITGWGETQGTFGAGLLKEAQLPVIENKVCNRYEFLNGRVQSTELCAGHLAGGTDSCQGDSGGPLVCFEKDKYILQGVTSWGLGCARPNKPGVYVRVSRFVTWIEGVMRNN
T10 sequence (P00747 97-580 partner limits assumed): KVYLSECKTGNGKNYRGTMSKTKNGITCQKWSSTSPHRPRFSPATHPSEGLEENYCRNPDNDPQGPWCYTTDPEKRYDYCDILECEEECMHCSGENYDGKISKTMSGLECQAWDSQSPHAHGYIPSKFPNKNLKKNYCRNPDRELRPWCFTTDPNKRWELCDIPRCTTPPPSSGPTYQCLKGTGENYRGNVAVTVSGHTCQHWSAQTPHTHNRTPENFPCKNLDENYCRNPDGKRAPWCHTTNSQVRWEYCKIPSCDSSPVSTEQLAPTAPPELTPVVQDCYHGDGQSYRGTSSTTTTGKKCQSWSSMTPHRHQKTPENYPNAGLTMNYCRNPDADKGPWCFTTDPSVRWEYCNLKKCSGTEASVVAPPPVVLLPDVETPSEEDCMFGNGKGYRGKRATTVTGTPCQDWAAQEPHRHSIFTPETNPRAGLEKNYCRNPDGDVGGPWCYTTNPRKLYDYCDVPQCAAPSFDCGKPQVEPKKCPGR
T11 sequence (P00743 234-492 limits assumed): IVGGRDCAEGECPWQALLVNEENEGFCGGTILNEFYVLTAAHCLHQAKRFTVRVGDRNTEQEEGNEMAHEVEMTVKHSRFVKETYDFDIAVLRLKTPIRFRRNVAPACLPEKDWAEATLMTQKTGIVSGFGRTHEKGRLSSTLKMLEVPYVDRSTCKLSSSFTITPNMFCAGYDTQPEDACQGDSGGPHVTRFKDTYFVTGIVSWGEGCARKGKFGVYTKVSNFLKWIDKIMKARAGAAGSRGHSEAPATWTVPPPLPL
T11 sequence (P00743 41-180 partner limits assumed): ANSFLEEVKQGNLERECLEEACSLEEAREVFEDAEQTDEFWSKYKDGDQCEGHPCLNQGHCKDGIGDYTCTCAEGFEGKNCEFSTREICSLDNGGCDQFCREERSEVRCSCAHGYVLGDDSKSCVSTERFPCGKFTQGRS

On to `NCCCOc1cc2ccccc2c(=O)o1` [3-(3-aminopropoxy)isocoumarin], for which the kinact/KI at bovine thrombin worked out at 3 M⁻¹ s⁻¹; in series [1] it was 5 M⁻¹ s⁻¹; at human plasma kallikrein, 30 M⁻¹ s⁻¹; on human factor XIa, 30 M⁻¹ s⁻¹; at human factor XIIa, 3 M⁻¹ s⁻¹; at bovine trypsin it was 1200 M⁻¹ s⁻¹. Besides, the kinact/KI in series [3] was determined as 2.3 M⁻¹ s⁻¹; in series [4], 47 M⁻¹ s⁻¹; on chymotrypsin it was 38 M⁻¹ s⁻¹; on cathepsin G, 2.8 M⁻¹ s⁻¹; on human plasmin it was 36 M⁻¹ s⁻¹. The “kobs/[I]” value in series [2] turned out to be 8.1 M⁻¹ s⁻¹. The half-life in [5] was found to be 10.1 h.
Regarding `CCOc1oc(=O)c2ccccc2c1Cl` [3-ethoxy-4-chloroisocoumarin, reference compound], at complement protein D, the kinact/KI was 0.25 M⁻¹ s⁻¹.
As to `COc1oc(=O)c2cc(NC(=O)[C@H](C)N)ccc2c1Cl` [7-(Alanylamino)-3-Methoxy-4-Chloroisocoumarin Hydrochloride], the kinact/KI on bovine trypsin amounted to 470 M⁻¹ s⁻¹; in [3], 1610 M⁻¹ s⁻¹; in [4] it was 13500 M⁻¹ s⁻¹; at cathepsin G, 20 M⁻¹ s⁻¹; at human plasmin, 31 M⁻¹ s⁻¹.
Take `COc1oc(=O)c2cc(NC(=O)CN)ccc2c1Cl` [7-(glycylamino)-4-chloro-3-methoxyisocoumarin]: the kinact/KI on bovine thrombin is 51.5 M⁻¹ s⁻¹; at bovine trypsin it was 32100 M⁻¹ s⁻¹; in series [3] it was 1960 M⁻¹ s⁻¹; in series [4], 7710 M⁻¹ s⁻¹; at cathepsin G, 4.9 M⁻¹ s⁻¹; at human plasmin it was 1470 M⁻¹ s⁻¹.
With `COc1oc(=O)c2cc(N)ccc2c1Cl` [7-amino-3-methoxy-4-chloroisocoumarin, reference compound], on complement protein D, the kinact/KI was 1.3 M⁻¹ s⁻¹.
As usually defined, the inhibition is how much of the control response was suppressed. High values mean strong suppression, low ones little suppression. On to `N=C(N)Nc1ccc2cc(OCCc3ccccc3)oc(=O)c2c1` [7-guanidino-3-(2-phenylethoxy)isocoumarin], for which the kinact/KI was 5700 M⁻¹ s⁻¹ on bovine thrombin; 11000 M⁻¹ s⁻¹ at bovine factor Xa; 16000 M⁻¹ s⁻¹ in series [1]; 62000 M⁻¹ s⁻¹ at human plasma kallikrein; 1200 M⁻¹ s⁻¹ on human factor XIa; 690 M⁻¹ s⁻¹ at human factor XIIa. In addition, the kinact/KI on bovine trypsin was 45000 M⁻¹ s⁻¹; in series [4], 0.9 M⁻¹ s⁻¹; at chymotrypsin it was 2600 M⁻¹ s⁻¹. In series [2], the “kobs/[I]” value came out at 150 M⁻¹ s⁻¹. The inhibition at 530 µM against cathepsin G (not time dependent, at 0.53 mM) stood at 87%. Further, in [5], the half-life is 2.33 h.
Regarding `CCOc1cc2ccc(NC(=N)N)cc2c(=O)o1` [7-guanidino-3-ethoxyisocoumarin], the kinact/KI at bovine thrombin is 3700 M⁻¹ s⁻¹; on bovine factor Xa, 2700 M⁻¹ s⁻¹; in series [1] it was 16000 M⁻¹ s⁻¹; at human plasma kallikrein it was 44000 M⁻¹ s⁻¹; at human factor XIa, 3100 M⁻¹ s⁻¹; on human factor XIIa, 1300 M⁻¹ s⁻¹. Besides, the kinact/KI at bovine trypsin is 20000 M⁻¹ s⁻¹; in [3] it was 86 M⁻¹ s⁻¹; in [4], 1900 M⁻¹ s⁻¹; on chymotrypsin, 990 M⁻¹ s⁻¹. Moreover, the “kobs/[I]” value in series [2] was determined as 150 M⁻¹ s⁻¹. At cathepsin G (not time dependent, at 47 μM), this molecule showed an inhibition at 47 µM of 87%. Further, the half-life in series [5] was 2.27 h.
